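Each compound was tested at five concentrations against cells in 96-well plates for 48 hours. TGI: total growth inhibition.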
Tests used:
Test in all cases: DTP human tumour cell line panel, 48 h
786-0 renal = system: 786-0 renal
EKVX NSCLC = system: EKVX NSCLC
IGROV1 ovarian = system: IGROV1 ovarian
MCF7 breast = system: MCF7 breast
RPMI-8226 leukemia = system: RPMI-8226 leukemia
RXF 393 renal = system: RXF 393 renal
SK-MEL-2 melanoma = system: SK-MEL-2 melanoma
TK-10 renal = system: TK-10 renal
U251 CNS = system: U251 CNS
BT-549 breast = system: BT-549 breast

| Structure (SMILES) | TGI (786-0 renal) [µM] | TGI (EKVX NSCLC) [µM] | TGI (IGROV1 ovarian) [µM] | TGI (MCF7 breast) [µM] | TGI (RPMI-8226 leukemia) [µM] | TGI (RXF 393 renal) [µM] | TGI (SK-MEL-2 melanoma) [µM] | TGI (TK-10 renal) [µM] | TGI (U251 CNS) [µM] | TGI (BT-549 breast) [µM] |
| --- | --- | --- | --- | --- | --- | --- | --- | --- | --- | --- |
| O=C(O)C(Cc1ccccc1)NCc1c(O)ccc2c(-c3ccccc3)cc(=O)oc12 (stereo not given) | > 100 | > 100 | > 100 | > 100 | > 100 | > 100 | > 100 | > 100 | > 100 | – |
| CC(O)c1nc(C#N)c(N)o1 (stereo not given) | > 100 | > 100 | > 100 | > 100 | > 100 | – | > 100 | > 100 | > 100 | – |
| COc1ccccc1NC(=O)C(=O)C(C(=O)c1ccccc1F)C1OC(=O)c2ccccc21 (stereo not given) | – | > 100 | > 100 | – | 69.6 | 68.4 | > 100 | > 100 | 31.1 | – |
| COC(=O)c1c2c(cc3c1CC1(Cc4cc5c(c(C=O)c4C1)CCC5)C3)CCC2 (stereo not given) | > 100 | > 100 | > 100 | > 100 | > 100 | > 100 | 72 | > 100 | 57.3 | – |
| COC(=O)C1=C(CCCCO[Si](C)(C)C(C)(C)C)NC(=O)N2[C@H](CCOCc3ccccc3)CC[C@@H]12 | > 100 | > 100 | – | > 100 | > 100 | – | > 100 | > 100 | > 100 | > 100 |
| O=C(O)c1c(CC(Cc2ccc3c(c2)CCC3)C(=O)O)ccc2c1CCC2 (stereo not given) | > 100 | > 100 | > 100 | > 100 | > 100 | – | > 100 | > 100 | > 100 | > 100 |
| COc1ccc(N2C(=O)C3c4[nH]c5c(C)cccc5c4C4CCC(C(C)C)CC4C3C2=O)cc1 (stereo not given) | 19.5 | 40.6 | 23.5 | 31.4 | > 100 | – | 35.3 | 76.8 | 29.9 | 56 |
| COc1ccc(-c2ccc(C(=O)C=P(c3ccccc3)(c3ccccc3)c3ccccc3)cc2)cc1 | 37.5 | 38.6 | – | 30.2 | 5.01 | 27 | – | 47.1 | 31.9 | – |
| NC(=O)CCC(N=c1c2ccccc2n(O)c2ccccc12)C(=O)O (stereo not given) | > 100 | > 100 | > 100 | – | 97.3 | – | > 100 | > 100 | > 100 | – |
| O=c1c2cc(Br)cc(Br)c2[nH]c(=S)n1-c1ccc(N=Nc2ccc(O)c3cccnc23)cc1 | > 100 | > 100 | 34.5 | 25.9 | > 100 | > 100 | > 100 | > 100 | 62.3 | – |
| O=P1(N(CCCl)CCCl)Oc2ccc(Cl)cc2C(C(Cl)(Cl)Cl)c2cc(Cl)ccc2O1 (stereo not given) | 30.7 | > 100 | – | 73.9 | > 100 | 29.3 | 47.3 | 89.5 | 29.2 | > 100 |
| CCCCCC[C@H]([C@H](C)O)n1cnc2c(N)ncnc21 | > 100 | > 100 | > 100 | > 100 | > 100 | > 100 | > 100 | > 100 | > 100 | – |
| C/C(=C1\N=C(c2ccccc2)OC1=O)c1ccccc1 | – | > 100 | > 100 | > 100 | > 100 | – | > 100 | > 100 | > 100 | – |
| C[C@]12CC[C@H]3[C@@H](CC=C4C[C@@H](N5CCCC5)CC[C@@]43C)[C@@H]1C[C@H](N1CCCCC1)[C@@H]2O | > 100 | > 100 | > 100 | > 100 | 85.7 | > 100 | – | > 100 | > 100 | > 100 |
| COC1(CC[C@@H](C)COC2OC(CO)C(O)C(O)C2O)OC2C[C@H]3[C@@H]4CC[C@H]5C[C@@H](OC6OC(CO)C(OC7OC(CO)C(O)C(O)C7O)C(O)C6OC6OC(C)C(O)C(O)C6O)[C@H](O)C[C@]5(C)[C@H]4CC[C@]3(C)C2[C@@H]1C (stereo not given in full) | 4.04 | 4.52 | 3.19 | 7.84 | 4.58 | 3.85 | 3.9 | 3.82 | 3.49 | – |
| CC1OC(OC2C(O[C@H]3CC[C@@]4(C)C(=CC[C@H]5[C@@H]6C[C@@H]7O[C@]8(CC[C@@H](C)CO8)[C@@H](C)[C@@H]7[C@@]6(C)CC[C@@H]54)C3)OC(CO)C(O)C2OC2OC(CO)C(O)C(O)C2O)C(O)C(O)C1O (stereo not given in full) | 2.97 | > 21.9 | 3.3 | 4.55 | – | 4.43 | 3.45 | 4.01 | – | 4.73 |

| Structure (SMILES) | TGI (786-0 renal) [µM] | TGI (EKVX NSCLC) [µM] | TGI (IGROV1 ovarian) [µM] | TGI (MCF7 breast) [µM] | TGI (RPMI-8226 leukemia) [µM] | TGI (RXF 393 renal) [µM] | TGI (SK-MEL-2 melanoma) [µM] | TGI (TK-10 renal) [µM] | TGI (U251 CNS) [µM] | TGI (BT-549 breast) [µM] |
| --- | --- | --- | --- | --- | --- | --- | --- | --- | --- | --- |
| CC1=C(CO)C(=O)OC(C(C)C2CCC3C4CC5OC56C(O)C(N5CC5)=CC(=O)C6(C)C4CCC23C)C1 (stereo not given) | 17.8 | 25.6 | 14.4 | – | 17.8 | 26.9 | 18.1 | 22 | 15.1 | – |
| Cn1c(=O)c2c(nc3[nH]c(=O)c(Br)cn32)n(C)c1=O | > 100 | > 100 | > 100 | – | > 100 | > 100 | > 100 | > 100 | > 100 | > 100 |
| N#Cc1nc(CCc2nc(C#N)c(N)o2)oc1N | > 10 | > 10 | > 10 | > 10 | > 10 | > 10 | – | > 10 | – | > 10 |
| CN(CCCCCl)P(=O)(OCc1ccc([N+](=O)[O-])o1)OCC1OC(n2ccc(N)nc2=O)C(O)C1O (stereo not given) | > 100 | – | 16.3 | 17 | 6.07 | 60.2 | 53.1 | > 100 | 11.1 | – |
| N[C@@H](CCC(=O)NC(Cc1ccccc1)C(=O)NCP(=O)(O)O)C(=O)O (stereo not given in full) | > 100 | > 100 | > 100 | > 100 | > 100 | – | > 100 | > 100 | > 100 | > 100 |
| COc1cc2c[n+]3c4c(c2c(OC)c1OC)CCCC4CC3 (stereo not given) | > 100 | > 100 | > 100 | – | > 100 | > 100 | > 100 | – | > 100 | – |
| FC1=C2C3CCC(C3)C2C1(F)F (stereo not given) | > 100 | > 100 | > 100 | > 100 | > 100 | > 100 | > 100 | > 100 | > 100 | – |
| O=C(Nc1ccccc1)N1CCN(C(=O)Nc2ccccc2)C1=S | > 100 | > 100 | > 100 | – | > 100 | 43.6 | > 100 | > 100 | > 100 | > 100 |
| CC1=NN(C(=O)CC(=O)Nc2cccc(C)c2)C(=O)C1N=Nc1ccc(S(=O)(=O)CCOS(=O)(=O)O)cc1 (stereo not given) | 12.9 | > 64.6 | 12.4 | 13.4 | > 100 | 22 | 2.67 | 26.2 | 13.6 | – |
| COC1/C=C/C(C)C(O)CC(O)/C=C/C(C)C(C(C)C(OC)C(C)CCC(=O)C(C)C(C/C=C/N(C)C=O)OC)OC(=O)/C=C/C=C(\C)CC(OC)CC2=CC(=O)O[C@@H](C(C)C(OC)C1)[C@H]2O (stereo not given in full) | – | 0.266 | 0.0689 | 0.0909 | 0.124 | 0.0112 | – | 0.0551 | 0.102 | 1.5 |
| ClC1=NN=C(c2c[nH]c3ccccc23)CC1NCc1ccccc1 (stereo not given) | > 100 | > 100 | > 100 | – | > 100 | > 100 | > 100 | > 100 | > 100 | > 100 |
| O=C1NC(O)c2cc3ccccc3cc2O1 (stereo not given) | > 100 | > 100 | > 100 | > 100 | > 100 | > 100 | – | > 100 | 87.3 | 82.1 |
| O=C(CNc1ccccc1C(=O)O)Nn1cnc2ccc(S(=O)(=O)Nc3ccccc3C(=O)O)cc2c1=O | > 100 | > 100 | > 100 | > 100 | > 100 | – | > 100 | > 100 | > 100 | > 100 |
| CC1=C(C)C(=O)C(C2=CC(=O)c3ccccc3C2=O)=C(C2=CC(=O)c3ccccc3C2=O)C1=O | > 58.1 | > 72 | 29.8 | – | – | 22.4 | 24.4 | > 38.4 | > 45.3 | 48.1 |
| O=C(O)CSC(CC(=O)c1ccc(Cl)cc1)c1ccc(Cl)cc1 (stereo not given) | > 100 | > 100 | 54.5 | > 100 | 61.2 | – | > 100 | > 100 | > 100 | 80.7 |
| CSC(SC)=C(C(=O)c1ccc(Cl)cc1)n1c(=O)sc2cc(Br)ccc21 | > 100 | > 100 | > 100 | > 100 | > 100 | > 100 | > 100 | > 100 | > 100 | – |

From PubChem BioAssay (NCI)
